What was measured:
GIST-T1 [1] = assay: Cell proliferation assay (Cell Counting Kit-8), drug screen; assay type: cell-based, human; conditions: Homo sapiens, GISTT1; cell viability after 72 hours of treatment; read-out: IC50 GIST-T1
GIST-T1/670 [2] = assay: Cell proliferation assay (Cell Counting Kit-8); assay type: cell-based, human; conditions: for IC50: Homo sapiens, GISTT1, cell viability after 72 hours of treatment, read-out: IC50 T1/670
p-Akt = assay: Immunoblot analysis of p-Akt; assay type: cell-based; conditions: 100 nM, 24 h, all cell lines tested, western blot
GIST882 = assay: Cell proliferation assay (Cell Counting Kit-8), drug screen; assay type: cell-based; conditions: Homo sapiens, GIST882; cell viability after 72 hours of treatment; read-out: IC50 GIST882
GIST-T1/10R [3] = assay: Cell proliferation assay (Cell Counting Kit-8); assay type: cell-based, human; conditions: Homo sapiens, GISTT1; cell viability after 72 hours of treatment; read-out: IC50 T1-10R
GIST-T1/670 [4] = assay: Caspase 3/7 apoptosis assay; assay type: cell-based, human; conditions: GIST-T1/670, 48 h, single agent
Description: (§1) Inhibitor concentrations used were as mentioned in figure legends.
(§2) Fig 4 Combined Inhibition of KIT, PI3K and MAPK signaling pathways induces apoptosis in GIST cells. […] The data is represented as percent increase over untreated cells; each column represents mean of triplicates. […] (***p<0.0001); (**p<0.001); (*p<0.05).

p-KIT = assay: Immunoblot analysis of p-KIT; assay type: cell-based; conditions: 100 nM, GIST882, 24 h, western blot
Method: (C) GIST882 cells were treated with the indicated inhibitor concentrations for 24 h and cell lysates were run on SDS-PAGE followed by immunoblotting to detect the indicated proteins. Data is representative of two independent experiments.

metastatic GIST = conditions: cited from earlier work
p-MAPK = assay: Immunoblot analysis of p-MAPK (p-ERK); assay type: cell-based; conditions: GIST-T1, IM 1 μM, 24 h, western blot
GIST-T1/10R [5] = assay: Caspase 3/7 apoptosis assay; assay type: cell-based, human; conditions: 48 h, single agent
Description: as §1, §2

GIST-T1 [6] = assay: Caspase 3/7 apoptosis assay; assay type: cell-based, human; conditions: GIST-T1, 48 h, single agent
Description: as §1, §2

[7] = system: imatinib sensitive and resistant cell lines; assay: Caspase 3/7 apoptosis assay of screen hits; conditions: 24 h and 48 h; irinotecan 0.5 μM, sorafenib 500 nM, compound C 5 μM, triptolide 25 nM
Method: (§3) Around 10,000 cells/well were plated in complete media in 96-well white flat-bottom plates and therapeutic compounds were added 24 hours later. Apoptosis was evaluated by measuring caspase-3/7 activity using Caspase-Glo 3/7 Assay System (Promega, WI, USA) after 24 and 48 h of treatment with inhibitors. […] Inhibitor concentrations used were as mentioned in figure legends.
(§4) The data is represented as % of control; each bar represents the mean of triplicates. […] Cells were treated with inhibitors at indicated concentrations for 24 h.

[8] = system: imatinib-resistant cell lines; assay: Caspase 3/7 apoptosis assay of screen hits; assay type: cell-based; conditions: sorafenib 500 nM; both imatinib-resistant cell lines
Method: as §3, §4

GIST cell lines = assay: Cell proliferation assay with trametinib; conditions: compared with PD, 72 h
GIST-T1/670 [9] = assay: Clonogenic (colony outgrowth) assay after drug removal; assay type: cell-based, human; conditions: single agent, 1 month treatment, 2 weeks drug-free
Method: Cells were treated with either IM (1 μM), SU (1 μM), RE (1 μM), GDC (500 nM), PD (500 nM), trametinib (500 nM), either alone or in combination for 1 month with replacement of fresh media with drug every week. Thereafter, cells were washed with PBS twice and fresh media without inhibitors was added and colonies were allowed to grow for 2 more weeks. The colonies were stained with crystal violet and counted. Untreated wells were not revived for extra 2 weeks.
After 1-month duration of treatment, cells were allowed to grow in drug-free media for two weeks before staining with crystal violet.

MCF7 [10] = assay: Cell proliferation assay, control cell line; conditions: Homo sapiens, MCF7, 72 h, read-out: IC50 MCF7
MRC5 = assay: Cell proliferation assay, control cell line; conditions: Homo sapiens, MRC5, 72 h, read-out: IC50 MRC5
[11] = system: imatinib sensitive cell lines; assay: Cell proliferation assay; assay type: cell-based; conditions: 72 h
MCF7 [12] = assay: Caspase 3/7 apoptosis assay of screen hits; assay type: cell-based; conditions: triptolide 25 nM
Method: as §3, §4

[13] = clinical trials in GIST patients

| SMILES | IC50 (GIST-T1 [1]) [nM] | IC50 (GIST-T1/670 [2]) [nM] | IC50 (GIST882) [nM] | IC50 (GIST-T1/10R [3]) [nM] | induction of apoptosis (caspase 3/7 activity) (GIST-T1/670 [4]) | induction of apoptosis (caspase activity) (GIST-T1/10R [5]) | induction of apoptosis (caspase 3/7 activity) (GIST-T1 [6]) | cytotoxic effects (caspase 3/7 activity) [7] [fold] | other results |
| --- | --- | --- | --- | --- | --- | --- | --- | --- | --- |
| CS(=O)(=O)N1CCN(Cc2cc3nc(-c4cccc5[nH]ncc45)nc(N4CCOCC4)c3s2)CC1 [GDC-0941] | 300 | > 1000 | 500 | > 1000 | did not induce apoptosis | – | – | – | inhibition of phosphorylation of Akt (p-Akt): inhibits phosphorylation of Akt |
| Cc1ccc(NC(=O)c2ccc(CN3CCN(C)CC3)cc2)cc1Nc1nccc(-c2cccnc2)n1 [Imatinib] | – | – | – | – | did not induce apoptosis | did not show increase in caspase activity | did not induce apoptosis | – | inhibition of p-KIT (p-KIT): not sufficient to completely inhibit p-KIT; stable disease (metastatic GIST; KIT/PDGFRA-driven metastatic GIST, share of cases): approximately 85%; time of treatment to secondary resistance mutations (metastatic GIST; prolonged exposure): 18–24 months; inhibition of downstream MAPK signaling (p-MAPK): 50% |
| CNC(=O)c1cc(Oc2ccc(NC(=O)Nc3ccc(Cl)c(C(F)(F)F)c3)cc2)ccn1 [Sorafenib] | 25 | < 500 | < 100 | 200 | – | – | – | ≥ 2 | overall progression free survival (metastatic GIST; [13]): < 6 mo; overall response rate (metastatic GIST; [13]): < 10%; increase in apoptosis (caspase 3/7 activity) [8]: 4–8 fold |
| CC(=O)Nc1cccc(-n2c(=O)n(C3CC3)c(=O)c3c(Nc4ccc(I)cc4F)n(C)c(=O)c(C)c32)c1 [TR, trametinib] | – | – | – | – | – | – | – | – | inhibition of cell proliferation as a single agent (GIST cell lines): better at inhibiting cell proliferation than PD |
| CCN(CC)CCNC(=O)c1c(C)[nH]c(/C=C2\C(=O)Nc3ccc(F)cc32)c1C [Sunitinib] | 25 | > 10000 | < 200 | > 10000 | – | did not induce apoptosis | not effective | – | sensitivity of cell line (proliferation) (GIST-T1/670 [2]; GIST-T1/670, S1A Fig): sensitive; suppression of colony outgrowth (GIST-T1/670 [9]): effective; time until resistance occurs (metastatic GIST; second-line / third-line therapy): 6–12 months |
| CC(C)[C@]12O[C@H]1[C@@H]1O[C@]13[C@]1(O[C@H]1C[C@H]1C4=C(CC[C@@]13C)C(=O)OC4)[C@@H]2O [Triptolide] | < 10 | < 25 | < 10 | < 25 | – | – | – | ≥ 2 | IC50 (MCF7 [10]): > 10000 nM; IC50 (MRC5): 10 nM; concentration that inhibited the proliferation of imatinib sensitive cell lines [11]: < 0.5 µM; cytotoxicity (caspase 3/7 activity) in MCF7 (MCF7 [12]): showed cytotoxicity |

Reference: publication PMC8320897, “Inhibition of PI3K and MAPK pathways along with KIT inhibitors as a strategy to overcome drug resistance in gastrointestinal stromal tumors” (PLoS ONE, 2021)
